Laboratory results reported in patent publication US8216822B2, “Bacterial host cell for the direct expression of peptides” (Unigene Laboratories, Inc., priority 2004, dated 2012).

B1: α2-macroglobulin: protease inhibitor (protein, UniProt P01023 24-1474, looked up)
Alpha-2-macroglobulin: SVSGKPQYMVLVPSLLHTETTEKGCVLLSYLNETVTVSASLESVRGNRSLFTDLEAENDVLHCVAFAVPKSSSNEEVMFLTVQVKGPTQEFKKRTTVMVKNEDSLVFVQTDKSIYKPGQTVKFRVVSMDENFHPLNELIPLVYIQDPKGNRIAQWQSFQLEGGLKQFSFPLSSEPFQGSYKVVVQKKSGGRTEHPFTVEEFVLPKFEVQVTVPKIITILEEEMNVSVCGLYTYGKPVPGHVTVSICRKYSDASDCHGEDSQAFCEKFSGQLNSHGCFYQQVKTKVFQLKRKEYEMKLHTEAQIQEEGTVVELTGRQSSEITRTITKLSFVKVDSHFRQGIPFFGQVRLVDGKGVPIPNKVIFIRGNEANYYSNATTDEHGLVQFSINTTNVMGTSLTVRVNYKDRSPCYGYQWVSEEHEEAHHTAYLVFSPSKSFVHLEPMSHELPCGHTQTVQAHYILNGGTLLGLKKLSFYYLIMAKGGIVRTGTHGLLVKQEDMKGHFSISIPVKSDIAPVARLLIYAVLPTGDVIGDSAKYDVENCLANKVDLSFSPSQSLPASHAHLRVTAAPQSVCALRAVDQSVLLMKPDAELSASSVYNLLPEKDLTGFPGPLNDQDNEDCINRHNVYINGITYTPVSSTNEKDMYSFLEDMGLKAFTNSKIRKPKMCPQLQQYEMHGPEGLRVGFYESDVMGRGHARLVHVEEPHTETVRKYFPETWIWDLVVVNSAGVAEVGVTVPDTITEWKAGAFCLSEDAGLGISSTASLRAFQPFFVELTMPYSVIRGEAFTLKATVLNYLPKCIRVSVQLEASPAFLAVPVEKEQAPHCICANGRQTVSWAVTPKSLGNVNFTVSAEALESQELCGTEVPSVPEHGRKDTVIKPLLVEPEGLEKETTFNSLLCPSGGEVSEELSLKLPPNVVEESARASVSVLGDILGSAMQNTQNLLQMPYGCGEQNMVLFAPNIYVLDYLNETQQLTPEIKSKAIGYLNTGYQRQLNYKHYDGSYSTFGERYGRNQGNTWLTAFVLKTFAQARAYIFIDEAHITQALIWLSQRQKDNGCFRSSGSLLNNAIKGGVEDEVTLSAYITIALLEIPLTVTHPVVRNALFCLESAWKTAQEGDHGSHVYTKALLAYAFALAGNQDKRKEVLKSLNEEAVKKDNSVHWERPQKPKAPVGHFYEPQAPSAEVEMTSYVLLAYLTAQPAPTSEDLTSATNIVKWITKQQNAQGGFSSTQDTVVALHALSKYGAATFTRTGKAAQVTIQSSGTFSSKFQVDNNNRLLLQQVSLPELPGEYSMKVTGEGCVYLQTSLKYNILPEKEEFPFALGVQTLPQTCDEPKAHTSFQISLSVSYTGSRSASNMAIVDVKMVSGFIPLKPTVKMLERSNHVSRTEVSSNHVLIYLDKVSNQTLSLFFTVLQDVPVRDLKPAIVKVYDYYETDEFAIAEYNAPCSKDLGNA

How the values were obtained:
[1] = target: T1, E. coli Protease III (zinc metalloprotease) in fermentation medium (Escherichia coli, UniProt P05458); assay: Divalent cation specificity of sCTgly degradation in fermentation medium (EDTA, MgCl2, ZnCl2); type: biochemical; settings: 15 mM added to EDTA (50 mM) pre-treated medium, 30° C., 4 hrs
T1 construct: E. coli Protease III is a periplasmic/extracellular zinc metalloprotease; endogenous in cells; host or cells: E. coli BLR (UGL703 / UGL165), cell-free conditioned fermentation medium
T1 sequence (P05458 24-962): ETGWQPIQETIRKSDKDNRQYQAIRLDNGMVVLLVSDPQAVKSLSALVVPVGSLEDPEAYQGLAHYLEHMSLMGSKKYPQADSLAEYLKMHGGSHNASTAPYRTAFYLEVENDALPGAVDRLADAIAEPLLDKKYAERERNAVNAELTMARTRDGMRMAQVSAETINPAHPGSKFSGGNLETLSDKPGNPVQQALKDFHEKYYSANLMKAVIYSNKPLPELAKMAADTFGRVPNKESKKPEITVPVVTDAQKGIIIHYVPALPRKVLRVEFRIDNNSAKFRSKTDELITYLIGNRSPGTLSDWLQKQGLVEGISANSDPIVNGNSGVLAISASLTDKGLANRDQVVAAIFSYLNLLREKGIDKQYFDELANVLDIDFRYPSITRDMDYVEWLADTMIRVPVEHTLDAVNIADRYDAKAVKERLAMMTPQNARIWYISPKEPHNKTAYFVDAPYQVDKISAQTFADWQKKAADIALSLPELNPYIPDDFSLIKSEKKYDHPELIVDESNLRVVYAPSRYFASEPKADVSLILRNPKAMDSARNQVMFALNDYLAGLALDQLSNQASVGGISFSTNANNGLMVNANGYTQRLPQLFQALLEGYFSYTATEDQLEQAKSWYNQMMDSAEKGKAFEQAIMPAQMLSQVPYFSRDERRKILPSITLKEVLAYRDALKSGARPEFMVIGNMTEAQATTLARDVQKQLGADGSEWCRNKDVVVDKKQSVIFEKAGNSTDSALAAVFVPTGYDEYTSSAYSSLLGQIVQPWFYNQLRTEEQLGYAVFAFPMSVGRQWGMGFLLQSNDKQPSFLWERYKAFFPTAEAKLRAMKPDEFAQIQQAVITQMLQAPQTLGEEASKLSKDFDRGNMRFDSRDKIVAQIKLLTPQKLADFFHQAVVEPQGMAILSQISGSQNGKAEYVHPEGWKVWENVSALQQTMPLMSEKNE

[2] = tested on: proteolytic degradation of sCTgly in conditioned fermentation medium; assay: Protease inhibitors tested for ability to reduce proteolytic degradation of sCTgly in conditioned medium; type: biochemical, E. coli; settings: 30° C.
Method: Conditioned medium samples from both UGL165 (E. coli BLR transformed with pSCT 029) and UGL703 (E. coli BLR transformed with pSCT 038) Direct Expression fermentations were tested for loss of sCTgly following removal of cells and incubation of the medium spiked with sCTgly at 30° C. The concentration of sCTgly in conditioned fermentation medium was measured by CEX HPLC.

Row | Molecule | reactivation of proteolytic activity by divalent cation [1] | ability to reduce or eliminate proteolytic degradation of sCTgly [2]
1 | [Cl-].[Cl-].[Mg+2] [MgCl2] | magnesium was not | –
2 | [Cl-].[Cl-].[Zn+2] [ZnCl2] | zinc was effective | –
3 | CC(C)C[C@H](NC(=O)[C@@H](O)[C@H](N)Cc1ccccc1)C(=O)O [Bestatin] | – | Only EDTA was able to reduce the proteolytic degradation of sCTgly
4 | B1 | – | Only EDTA was able to reduce the proteolytic degradation of sCTgly
